Measurements as given in patent US9717792B2, “Combination therapy for cancer using HSP27 inhibitor and EGFR tyrosine kinase inhibitors or anti-folates” (The University Of British Columbia, priority 2012, dated 2017).

Tests used:
HCC827 cells = assay: Western blot of protein levels in HCC827 parental cells; type: cell-based, human; conditions: erlotinib 2.5 nanomolar; vs non-treated cells
Description: Levels of p-EGFR(Tyr1068), EGFR, Hsp27, Cleaved PARP, Cleaved and whole Caspase-3, and beta-actin (cell protein control) were detected.

A549 lung cancer cells = assay: Western blot of protein levels in A549 cells; type: cell-based, human
Description: Western blots: To perform Westerns, cell lysates were prepared under non-denaturing conditions. Briefly, the cell lysates were to immunoprecipition, and subsequently immunoblotted using antibody and visualized via electrophoresis and autoradiogram.
48 and 72 hours of exposure.
Protein expression was analyzed by western blotting. […] Flow cytometry was used to quantify the percentage of cells in each cell cycle phase.
(§1) Cleaved PARP, p-EGFR(Tyr1068), EGFR, p-Hsp27(Ser82), Hsp27, and Beta-actin were assayed.
Western gels were run on cell protein prepared under standard non-denaturing conditions, and relative levels of p-Hsp27(Ser82), Hsp27, cleaved PARP, and beta-actin were detected using commercial antibodies from Cell Signalling (Danvers, USA). Protein levels from zero to 48 hours for a 1 microMolar pemetrexed exposure were measured.
72 h later, cell viability was determined by crystal violet assay. […] Protein levels were also determined in these cells by immunoblotting.

Hsp27 OE A549 cells = assay: Hsp27-overexpressing A549 cells: western blotting and flow cytometry after Erlotinib; type: cell-based, human
Description: The cell viability was determined by crystal violet assay.
The cells undergoing apoptosis (subG0/G1 fraction) were quantified using flow cytometry. FIGS. 4B and C.
as §1

Hsp27 mRNA = Hsp27 mRNA expression by quantitative RT-PCR in A549 cells; conditions: 5 or 10 μM Erlotinib for 24 or 48 hours; normalized to GAPDH mRNA
Description: Hsp27 mRNA expression was analyzed by quantitative RT-PCR. Hsp27 mRNA levels were normalized to levels of GAPDH mRNA. Bars, SD. ** and *, differ from control (P<0.01 and P<0.05, respectively).

[1] = biological target: PKC-dependent phosphorylation of Hsp27 (Homo sapiens, UniProt P04792); conditions: cited from earlier work
[2] = A549, erlotinib 0 to 20 micromolar, 72 hours
[3] = A549 OE, erlotinib 0 to 20 micromolar, 72 hours

PKC-dependent phosphorylation of Hsp27, sequence (P04792 whole entry): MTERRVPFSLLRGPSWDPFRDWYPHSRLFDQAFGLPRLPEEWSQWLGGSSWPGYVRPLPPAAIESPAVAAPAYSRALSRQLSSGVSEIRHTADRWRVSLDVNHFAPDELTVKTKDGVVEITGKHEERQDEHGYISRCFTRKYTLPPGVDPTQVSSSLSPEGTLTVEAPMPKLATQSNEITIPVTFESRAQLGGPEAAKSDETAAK

C#Cc1cccc(Nc2ncnc3cc(OCCOC)c(OCCOC)cc23)c1 [Erlotinib, erlotinib]
p-EGFR (Tyr068) (Western) (HCC827 cells): decrease | protein levels of P-Hsp27(ser82), Hsp27 (Western) (HCC827 cells): increased | amounts of EGFR, Hsp27 and p-Hsp27 (Western Blot) (A549 lung cancer cells; 10 μM Erlotinib, 1, 6, 24, 48 and 72 hours): Increasing amounts | cleaved PARP (Western Blot) (A549 lung cancer cells; 10 μM Erlotinib, 1 to 72 hours): observed at all times following 24 hours of treatment | p-EGFR (Tyr 1068) (Western Blot) (A549 lung cancer cells; 10 μM Erlotinib, 1 to 72 hours): not observed following treatment | p-Hsp27, Hsp27, p-EGFR, EGFR, cleaved PARP (Western Blot), repeat (A549 lung cancer cells; 48 hours, erlotinib 2.5, 5 and 10 μM): Qualitatively similar results | Cleaved PARP (Western) (A549 lung cancer cells; [2]): increased | p-EGFR(Tyr1068) (Western) (A549 lung cancer cells; [2]): decrease | Cleaved PARP (Western) (Hsp27 OE A549 cells; [3]): increased | p-EGFR(Tyr1068) (Western) (Hsp27 OE A549 cells; [3]): decrease | p-Hsp27(Ser82) (Western) (Hsp27 OE A549 cells; [3]): dose-dependent increase | apoptotic rate in cells with Hsp27 overexpression (Hsp27 OE A549 cells; Hsp27 OE A549 vs Empty A549, varying levels of erlotinib): decreased apoptotic rate | Hsp27 mRNA expression (Hsp27 mRNA): increased Hsp27 expression

CCc1cc(-c2oncc2-c2ccc(OC)cc2)c(O)cc1OC [KRIBB3, 5-(5-Ethyl-2-hydroxy-4-methoxyphenyl)-4-(4-methoxyphenyl)isoxazole]
IC50 [1]: 50 nM

Nc1nc2[nH]cc(CCc3ccc(C(=O)N[C@@H](CCC(=O)O)C(=O)O)cc3)c2c(=O)[nH]1 [pemetrexed]
pHsp27 and cleaved PARP signals (Western) (A549 lung cancer cells; pemetrexed 0, 0.25, 0.5, 1.0 microMoles, zero to 48 hours): increase with dose and are greatest at 48 hours
